Measured values published in article PMC9329436, “Optimization of the 4-anilinoquin(az)oline scaffold as epidermal growth factor receptor (EGFR) inhibitors for chordoma utilizing a toxicology profiling assay platform” (Scientific Reports, 2022).
Where two headings read alike, the source gives them in different places.

Tests used:
Type in all cases: biochemical
[1] = molecular target: 320 wild-type protein kinases (Homo sapiens, UniProt Q9H2X6); details: singlicate
Source text: (§1) Table S4. Profiling of two compounds at two concentrations against 320 wild-type protein kinases; singlicate measurement; Residual activities (% of control).

[2] = molecular target: 320 wild-type protein kinases (Homo sapiens, UniProt Q14289); details: kinase PYK2, singlicate
Source text: as §1

[3] = molecular target: 320 wild-type protein kinases (Homo sapiens, UniProt P19525); details: singlicate
Source text: as §1

[4] = molecular target: 320 wild-type protein kinases (Homo sapiens, UniProt Q14680); details: MELK, singlicate
Source text: as §1

[5] = molecular target: T1, 320 wild-type protein kinases (Homo sapiens, UniProt Q9UHD2); details: kinase TBK1, singlicate
T1 sequence (Q9UHD2 1-729): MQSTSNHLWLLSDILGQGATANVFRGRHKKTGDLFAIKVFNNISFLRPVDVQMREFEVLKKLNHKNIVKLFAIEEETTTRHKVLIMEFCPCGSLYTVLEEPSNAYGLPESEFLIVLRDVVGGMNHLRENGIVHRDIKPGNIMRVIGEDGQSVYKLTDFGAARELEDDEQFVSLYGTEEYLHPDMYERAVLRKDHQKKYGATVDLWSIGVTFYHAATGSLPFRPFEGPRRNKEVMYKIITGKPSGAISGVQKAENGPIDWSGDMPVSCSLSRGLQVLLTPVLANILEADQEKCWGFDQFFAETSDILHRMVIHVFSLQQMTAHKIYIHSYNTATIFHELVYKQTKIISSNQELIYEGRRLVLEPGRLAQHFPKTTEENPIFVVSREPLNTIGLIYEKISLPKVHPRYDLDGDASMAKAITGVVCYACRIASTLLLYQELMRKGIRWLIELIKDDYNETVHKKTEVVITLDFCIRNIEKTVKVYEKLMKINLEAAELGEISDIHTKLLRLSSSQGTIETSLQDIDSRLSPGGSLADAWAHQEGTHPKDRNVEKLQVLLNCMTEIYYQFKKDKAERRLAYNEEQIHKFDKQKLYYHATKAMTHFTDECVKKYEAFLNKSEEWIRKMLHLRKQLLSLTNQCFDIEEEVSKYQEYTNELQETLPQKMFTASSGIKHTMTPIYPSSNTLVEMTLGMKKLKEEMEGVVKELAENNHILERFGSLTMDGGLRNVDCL
Source text: as §1

[6] = molecular target: T2, 320 wild-type protein kinases (Homo sapiens, UniProt Q6XUX3); details: kinase RIPK5, singlicate
T2 sequence (Q6XUX3 1-929): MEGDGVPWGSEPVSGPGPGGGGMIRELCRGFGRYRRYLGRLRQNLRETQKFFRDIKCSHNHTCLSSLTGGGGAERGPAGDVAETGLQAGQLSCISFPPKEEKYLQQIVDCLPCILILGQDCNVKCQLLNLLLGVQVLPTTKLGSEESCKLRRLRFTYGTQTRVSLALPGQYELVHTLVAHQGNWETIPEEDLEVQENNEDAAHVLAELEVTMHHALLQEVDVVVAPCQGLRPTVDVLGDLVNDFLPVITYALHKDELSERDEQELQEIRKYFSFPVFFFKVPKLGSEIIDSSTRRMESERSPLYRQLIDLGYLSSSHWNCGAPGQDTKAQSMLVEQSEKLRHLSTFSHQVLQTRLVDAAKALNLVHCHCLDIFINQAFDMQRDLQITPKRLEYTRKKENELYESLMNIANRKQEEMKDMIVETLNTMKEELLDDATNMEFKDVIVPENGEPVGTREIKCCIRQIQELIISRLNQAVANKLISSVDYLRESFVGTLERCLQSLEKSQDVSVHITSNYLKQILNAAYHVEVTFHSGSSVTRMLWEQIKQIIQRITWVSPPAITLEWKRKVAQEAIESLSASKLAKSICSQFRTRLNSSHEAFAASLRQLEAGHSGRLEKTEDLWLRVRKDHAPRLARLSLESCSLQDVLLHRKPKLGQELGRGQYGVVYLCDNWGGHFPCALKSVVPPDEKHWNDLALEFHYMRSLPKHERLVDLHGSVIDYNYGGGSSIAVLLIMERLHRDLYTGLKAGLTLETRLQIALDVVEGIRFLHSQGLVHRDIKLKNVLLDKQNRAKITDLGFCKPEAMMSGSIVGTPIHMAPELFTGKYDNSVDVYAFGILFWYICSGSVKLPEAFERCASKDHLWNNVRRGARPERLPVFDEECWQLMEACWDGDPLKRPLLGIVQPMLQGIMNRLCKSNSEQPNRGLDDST
Source text: as §1

[7] = molecular target: 320 wild-type protein kinases (Homo sapiens, UniProt P15056); details: B-RAF, singlicate
Source text: as §1

[8] = molecular target: 320 wild-type protein kinases (Homo sapiens, UniProt Q9BYT3); details: kinase STK33, singlicate
Source text: as §1

[9] = molecular target: 320 wild-type protein kinases (Homo sapiens, UniProt P51957); details: singlicate
Source text: as §1

[10] = molecular target: 320 wild-type protein kinases (Homo sapiens, UniProt Q9UPE1); details: kinase STK23, singlicate
Source text: as §1

Sequence of 320 wild-type protein kinases (Homo sapiens, UniProt P51957) (P51957 whole entry): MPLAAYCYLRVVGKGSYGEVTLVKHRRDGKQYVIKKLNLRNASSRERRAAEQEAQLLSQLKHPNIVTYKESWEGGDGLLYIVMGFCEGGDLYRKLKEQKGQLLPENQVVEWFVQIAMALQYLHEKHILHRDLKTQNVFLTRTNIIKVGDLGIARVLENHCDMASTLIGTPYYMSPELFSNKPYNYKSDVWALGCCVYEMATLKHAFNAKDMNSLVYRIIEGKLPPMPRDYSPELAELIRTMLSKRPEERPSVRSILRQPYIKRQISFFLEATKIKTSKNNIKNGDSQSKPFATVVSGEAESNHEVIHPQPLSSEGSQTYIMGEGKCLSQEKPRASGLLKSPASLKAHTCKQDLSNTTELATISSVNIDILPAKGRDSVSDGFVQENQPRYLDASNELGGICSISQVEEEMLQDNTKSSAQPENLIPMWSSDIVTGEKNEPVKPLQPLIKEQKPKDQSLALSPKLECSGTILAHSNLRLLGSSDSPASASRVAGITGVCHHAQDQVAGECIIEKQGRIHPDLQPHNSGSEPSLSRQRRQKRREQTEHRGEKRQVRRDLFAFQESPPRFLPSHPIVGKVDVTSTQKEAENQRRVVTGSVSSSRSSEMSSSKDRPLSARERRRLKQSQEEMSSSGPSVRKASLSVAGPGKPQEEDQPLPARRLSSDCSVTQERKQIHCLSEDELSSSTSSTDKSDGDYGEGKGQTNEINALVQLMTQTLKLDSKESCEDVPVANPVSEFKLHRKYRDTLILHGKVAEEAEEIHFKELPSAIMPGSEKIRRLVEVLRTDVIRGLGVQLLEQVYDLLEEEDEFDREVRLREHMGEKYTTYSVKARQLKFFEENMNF
Sequence of 320 wild-type protein kinases (Homo sapiens, UniProt P15056) (P15056 whole entry): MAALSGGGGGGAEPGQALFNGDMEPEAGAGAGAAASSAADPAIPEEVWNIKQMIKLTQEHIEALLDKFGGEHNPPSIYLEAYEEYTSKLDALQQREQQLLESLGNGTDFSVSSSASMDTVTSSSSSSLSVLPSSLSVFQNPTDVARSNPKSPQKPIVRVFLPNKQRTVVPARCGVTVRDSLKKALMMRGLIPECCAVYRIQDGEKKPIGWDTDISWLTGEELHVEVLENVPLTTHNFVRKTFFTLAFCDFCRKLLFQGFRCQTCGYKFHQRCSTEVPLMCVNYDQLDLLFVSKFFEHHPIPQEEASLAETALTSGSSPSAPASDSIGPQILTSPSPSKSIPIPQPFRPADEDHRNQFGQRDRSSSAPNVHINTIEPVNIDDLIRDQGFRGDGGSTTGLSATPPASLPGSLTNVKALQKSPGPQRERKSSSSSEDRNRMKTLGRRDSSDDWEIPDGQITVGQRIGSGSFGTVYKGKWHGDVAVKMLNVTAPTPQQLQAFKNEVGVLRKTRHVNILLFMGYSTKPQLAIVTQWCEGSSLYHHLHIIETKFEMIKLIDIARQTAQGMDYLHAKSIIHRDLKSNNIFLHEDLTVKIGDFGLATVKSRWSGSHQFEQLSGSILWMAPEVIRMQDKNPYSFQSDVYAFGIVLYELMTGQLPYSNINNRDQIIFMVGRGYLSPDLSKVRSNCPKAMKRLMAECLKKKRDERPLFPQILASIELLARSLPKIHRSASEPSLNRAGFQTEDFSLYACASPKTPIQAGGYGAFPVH
Sequence of 320 wild-type protein kinases (Homo sapiens, UniProt Q9BYT3) (Q9BYT3 whole entry): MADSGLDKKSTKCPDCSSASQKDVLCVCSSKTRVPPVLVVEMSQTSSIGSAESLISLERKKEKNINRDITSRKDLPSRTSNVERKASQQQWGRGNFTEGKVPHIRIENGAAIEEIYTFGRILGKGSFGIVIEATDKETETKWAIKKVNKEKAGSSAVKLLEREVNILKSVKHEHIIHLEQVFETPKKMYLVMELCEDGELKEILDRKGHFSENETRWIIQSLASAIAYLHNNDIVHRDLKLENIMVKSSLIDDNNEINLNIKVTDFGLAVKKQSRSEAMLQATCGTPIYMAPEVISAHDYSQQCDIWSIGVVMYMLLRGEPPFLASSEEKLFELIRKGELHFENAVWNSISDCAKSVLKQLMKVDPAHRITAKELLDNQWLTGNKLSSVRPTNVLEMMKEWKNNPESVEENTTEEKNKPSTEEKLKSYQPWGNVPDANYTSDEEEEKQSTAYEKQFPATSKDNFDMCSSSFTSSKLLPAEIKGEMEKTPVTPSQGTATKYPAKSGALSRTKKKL
Sequence of 320 wild-type protein kinases (Homo sapiens, UniProt Q9UPE1) (Q9UPE1 whole entry): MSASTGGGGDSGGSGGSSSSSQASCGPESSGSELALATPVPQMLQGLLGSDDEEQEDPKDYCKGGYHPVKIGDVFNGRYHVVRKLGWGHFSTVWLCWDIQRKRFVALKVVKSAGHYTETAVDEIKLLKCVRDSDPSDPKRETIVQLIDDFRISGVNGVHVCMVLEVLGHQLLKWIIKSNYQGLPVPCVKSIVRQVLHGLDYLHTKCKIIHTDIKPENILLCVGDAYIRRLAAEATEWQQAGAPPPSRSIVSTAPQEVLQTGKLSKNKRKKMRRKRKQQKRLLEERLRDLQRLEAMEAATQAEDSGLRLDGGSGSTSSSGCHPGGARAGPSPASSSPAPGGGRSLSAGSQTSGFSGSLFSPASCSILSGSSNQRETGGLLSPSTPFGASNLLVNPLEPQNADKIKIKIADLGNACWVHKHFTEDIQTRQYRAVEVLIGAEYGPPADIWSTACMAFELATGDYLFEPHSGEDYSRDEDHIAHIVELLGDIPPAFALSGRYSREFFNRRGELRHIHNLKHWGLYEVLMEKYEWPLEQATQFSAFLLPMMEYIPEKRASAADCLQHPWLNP
Sequence of 320 wild-type protein kinases (Homo sapiens, UniProt Q14289) (Q14289 whole entry): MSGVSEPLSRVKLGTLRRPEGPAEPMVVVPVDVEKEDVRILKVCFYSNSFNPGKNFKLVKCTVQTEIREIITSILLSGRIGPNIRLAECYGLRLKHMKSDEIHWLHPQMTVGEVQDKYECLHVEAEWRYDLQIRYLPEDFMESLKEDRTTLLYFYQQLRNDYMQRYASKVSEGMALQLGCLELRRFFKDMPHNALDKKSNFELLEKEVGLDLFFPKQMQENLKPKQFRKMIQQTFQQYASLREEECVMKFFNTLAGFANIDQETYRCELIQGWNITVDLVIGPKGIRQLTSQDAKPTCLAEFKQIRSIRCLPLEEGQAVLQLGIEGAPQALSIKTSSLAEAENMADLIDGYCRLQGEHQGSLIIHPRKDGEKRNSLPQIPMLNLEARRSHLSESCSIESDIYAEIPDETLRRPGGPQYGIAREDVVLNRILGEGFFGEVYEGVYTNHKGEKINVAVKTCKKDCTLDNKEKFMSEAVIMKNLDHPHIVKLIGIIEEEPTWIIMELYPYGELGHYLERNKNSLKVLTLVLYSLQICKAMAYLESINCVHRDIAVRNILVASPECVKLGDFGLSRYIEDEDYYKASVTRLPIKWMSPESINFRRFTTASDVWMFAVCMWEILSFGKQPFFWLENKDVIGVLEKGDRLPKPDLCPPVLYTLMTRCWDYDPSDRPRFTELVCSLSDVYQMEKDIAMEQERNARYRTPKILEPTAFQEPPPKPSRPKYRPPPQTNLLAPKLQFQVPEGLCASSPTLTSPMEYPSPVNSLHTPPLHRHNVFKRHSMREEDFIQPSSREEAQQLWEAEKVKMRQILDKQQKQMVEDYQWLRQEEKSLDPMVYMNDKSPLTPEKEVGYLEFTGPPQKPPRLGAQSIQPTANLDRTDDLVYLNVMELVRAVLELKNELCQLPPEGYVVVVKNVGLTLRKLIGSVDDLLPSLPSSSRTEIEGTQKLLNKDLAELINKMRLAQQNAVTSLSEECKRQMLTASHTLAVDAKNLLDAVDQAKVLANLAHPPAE
Sequence of 320 wild-type protein kinases (Homo sapiens, UniProt P19525) (P19525 whole entry): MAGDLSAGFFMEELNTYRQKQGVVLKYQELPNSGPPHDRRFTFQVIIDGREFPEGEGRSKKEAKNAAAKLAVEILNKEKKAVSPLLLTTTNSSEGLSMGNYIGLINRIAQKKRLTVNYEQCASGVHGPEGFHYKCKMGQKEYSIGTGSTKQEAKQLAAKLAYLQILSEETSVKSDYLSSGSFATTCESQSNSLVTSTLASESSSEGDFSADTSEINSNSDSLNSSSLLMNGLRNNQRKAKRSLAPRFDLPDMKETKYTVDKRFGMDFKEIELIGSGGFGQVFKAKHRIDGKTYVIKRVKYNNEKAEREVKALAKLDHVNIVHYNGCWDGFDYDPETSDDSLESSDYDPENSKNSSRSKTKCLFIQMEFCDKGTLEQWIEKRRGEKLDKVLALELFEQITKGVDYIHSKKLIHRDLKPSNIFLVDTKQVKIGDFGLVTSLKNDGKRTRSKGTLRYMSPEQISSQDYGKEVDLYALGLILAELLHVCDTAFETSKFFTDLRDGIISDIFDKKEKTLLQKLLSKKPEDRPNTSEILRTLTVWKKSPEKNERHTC
Sequence of 320 wild-type protein kinases (Homo sapiens, UniProt Q14680) (Q14680 whole entry): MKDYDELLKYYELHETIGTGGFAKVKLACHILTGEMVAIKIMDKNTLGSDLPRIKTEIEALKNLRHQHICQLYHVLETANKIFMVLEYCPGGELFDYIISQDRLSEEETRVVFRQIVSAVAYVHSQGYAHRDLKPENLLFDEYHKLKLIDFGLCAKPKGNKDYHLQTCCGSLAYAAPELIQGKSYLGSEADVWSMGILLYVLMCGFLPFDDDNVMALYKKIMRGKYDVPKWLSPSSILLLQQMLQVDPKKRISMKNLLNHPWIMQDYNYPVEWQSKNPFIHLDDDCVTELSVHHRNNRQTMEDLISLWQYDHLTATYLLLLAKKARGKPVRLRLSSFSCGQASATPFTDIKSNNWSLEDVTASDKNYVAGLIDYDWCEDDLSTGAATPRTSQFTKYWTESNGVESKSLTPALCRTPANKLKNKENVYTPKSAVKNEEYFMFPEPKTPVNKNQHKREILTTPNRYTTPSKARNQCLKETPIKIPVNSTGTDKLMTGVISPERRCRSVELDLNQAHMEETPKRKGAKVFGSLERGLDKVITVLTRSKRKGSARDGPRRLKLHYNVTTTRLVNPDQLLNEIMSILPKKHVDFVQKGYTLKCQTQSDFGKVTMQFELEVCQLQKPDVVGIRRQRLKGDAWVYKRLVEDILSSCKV

Row | SMILES | Residual activity ([1]; HIPK2, 1.0E-06 M) | Residual activity ([1]; HIPK2, 1.0E-07 M) | Residual activity, PYK2 ([2]; assay conc. 1.0E-06 M) | Residual activity, PYK2 ([2]; assay conc. 1.0E-07 M) | Residual activity ([3]; EIF2AK2, 1.0E-06 M) | Residual activity ([3]; EIF2AK2, 1.0E-07 M) | Residual activity ([4]; 1.0E-06 M) | Residual activity ([4]; 1.0E-07 M) | Residual activity, TBK1 ([5]; assay conc. 1.0E-06 M) | Residual activity, TBK1 ([5]; assay conc. 1.0E-07 M) | Residual activity, RIPK5 ([6]; assay conc. 1.0E-06 M) | Residual activity, RIPK5 ([6]; assay conc. 1.0E-07 M) | Residual activity ([7]; 1.0E-06 M) | Residual activity ([7]; 1.0E-07 M) | Residual activity, STK33 ([8]; assay conc. 1.0E-06 M) | Residual activity, STK33 ([8]; assay conc. 1.0E-07 M) | Residual activity ([9]; NEK4, 1.0E-06 M) | Residual activity ([9]; NEK4, 1.0E-07 M) | Residual activity, STK23 ([10]; assay conc. 1.0E-06 M) | Residual activity, STK23 ([10]; assay conc. 1.0E-07 M)
1 | C#Cc1cc(Nc2ncnc3cc(I)ccc23)ccc1Cl [Compound 41] | 101 % of control | 97 % of control | 97 % of control | 103 % of control | 58 % of control | 72 % of control | 92 % of control | 101 % of control | 98 % of control | 106 % of control | 85 % of control | 96 % of control | 115 % of control | 145 % of control | 89 % of control | 98 % of control | 94 % of control | 100 % of control | 94 % of control | 93 % of control
2 | C#Cc1cc(Nc2ncnc3cc(OC)c(OC)cc23)ccc1Cl [Compound 45] | 94 % of control | 98 % of control | 92 % of control | 95 % of control | 77 % of control | 77 % of control | 101 % of control | 109 % of control | 89 % of control | 106 % of control | 71 % of control | 84 % of control | 108 % of control | 112 % of control | 76 % of control | 100 % of control | 84 % of control | 106 % of control | 87 % of control | 97 % of control
